Here are results for 17 compounds from patent US6878727B2 (Agouron Pharmaceuticals, Inc., priority 2002, dated 2005).

The target in the first experiment is T1, HCV polymerase (Hepatitis C virus genotype 1b, UniProt P26663).
T1 construct: 2.5 pmoles (0.15 μg) HCV polymerase protein in a final volume of 75 μL
T1 sequence (P26663 2420-3010): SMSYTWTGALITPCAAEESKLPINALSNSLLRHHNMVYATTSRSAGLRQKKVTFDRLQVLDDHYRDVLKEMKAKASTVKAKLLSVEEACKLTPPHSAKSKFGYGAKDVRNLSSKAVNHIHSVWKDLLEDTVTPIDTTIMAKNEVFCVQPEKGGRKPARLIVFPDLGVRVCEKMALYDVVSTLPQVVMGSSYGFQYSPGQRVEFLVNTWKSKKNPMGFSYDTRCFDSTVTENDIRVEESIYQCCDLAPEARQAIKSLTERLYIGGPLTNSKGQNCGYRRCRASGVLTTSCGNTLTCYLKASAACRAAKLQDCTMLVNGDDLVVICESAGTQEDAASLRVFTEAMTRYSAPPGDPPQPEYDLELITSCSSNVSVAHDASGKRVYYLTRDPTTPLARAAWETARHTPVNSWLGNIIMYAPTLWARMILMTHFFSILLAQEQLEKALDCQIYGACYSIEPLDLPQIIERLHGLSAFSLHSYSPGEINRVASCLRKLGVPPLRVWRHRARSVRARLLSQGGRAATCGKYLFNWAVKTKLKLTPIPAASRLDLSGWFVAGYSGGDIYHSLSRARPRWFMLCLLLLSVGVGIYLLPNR
Description: HCV Polymerase Inhibition Assay. The class given is biochemical. Conditions: @ 50 μM compound; given where it was impractical to calculate an IC50. How it is done: HCV Polymerase Inhibition Assay
The above-described compounds were tested for activity with HCV polymerase. Recombinant HCV polymerase was tested for its ability to perform primer/template-directed transcription in assays that contained 30 mM tris-HCl pH 7.2, 10 mM MgCl2, 20 mM NaCl, 1 mM Dithiothreitol (DTT), 0.05% Tween-20, 1% glycerol, 5 pmoles biotin-dG12 (primer), 0.5 pmoles poly(rC)300 (template), 1 μM GTP, 0.1-0.3 uCi α-^32P-GTP, and 2.5 pmoles (0.15 μg) HCV polymerase protein in a final volume of 75 μL. Reactions were initiated by addition of enzyme and incubated 30 minutes at 30° C. Reactions were stopped by addition of 33 mM EDTA, and polynucleotide products were collected by filtration through Diethylaminoethyl (DE) Filtermat papers (Wallac). Unincorporated triphosphate was removed by washing the filters with 5% dibasic sodium phosphate. The filters were counted in a Packard Tri-Lux Microbeta scintillation counter (Packard Bioscience, Meriden, Conn.). Compounds to be tested were added at various concentrations, e.g., 1 μm to 50 μm, from stocks in 10% DMSO-water (final DMSO is 1% in reaction).
IC50 values were estimated from the primary cpm data (collected in triplicate) using the formula: cpm (I)=cpm (no inhibitor)(1−([I]/([I]+IC50))). An IC50 value represents the concentration (in μM) of a compound that provides 50% inhibition of polymerase-directed transcription in the above assay. A percent inhibition value is expressed for a compound where it was impractical to calculate an IC50 value with available data. If the IC50 estimated by the above equation was less than 200 nM, it was recalculated using the following equation, which takes into account the enzyme concentration (30 nM) in the assay: cpm(I)=cpm(no inhibitor)(1−((((I+IC50+30e−9)−sqrt(((I+IC50+30e−9)^2)−4×30e−9×1)))/((2) (30e−9))). Curve fitting was performed using the program KaleidaGraph (Synergy Software, Reading, Pa.).
As for `CCOC1=CC(=O)OC(CCC#Cc2cccc(O)c2)(C2CCCC2)C1` (centres unmarked) [Example 15, 6-cyclopentyl-4-ethoxy-6-[4-(3-hydroxy-phenyl)-but-3-ynyl]-5,6-dihydro-pyran-2-one], the inhibition at 50 µM is 27%.

The same experiment, now with this note: recombinant HCV polymerase, primer/template-directed transcription (biotin-dG12/poly(rC)300), 30 minutes at 30° C.
For the compound `COC(=O)Cc1ccc(C#CC2(C3CCCC3)CC(=O)CC(=O)O2)cc1` (centres unmarked) [Example 4], the IC50 is 64.6 µM.

`C#CCCC1(C2CCCC2)CC(=O)C(Sc2ccccc2)C(=O)O1` (centres unmarked) [Example 16, 6-But-3-ynyl-6-cyclopentyl-3-phenylsulfanyl-dihydro-pyran-2,4-dione]: the IC50 stood at 80 µM.

Turning to `O=C1CC(=O)OC(CCC#Cc2ccc3scnc3c2)(C2CCCC2)C1` (centres unmarked) [Example 8, 6-(4-Benzothiazol-5-yl-but-3-ynyl)-6-cyclopentyl-dihydro-pyran-2,4-dione], the half-maximal inhibitory concentration (IC50) was 4.5 µM.

On to `O=C1CC(=O)OC(C#Cc2nccs2)(C2CCCC2)C1` (centres unmarked) [Example 2, Cyclopentyl-6-(1,3-thiazol-2-ylethynyl)dihydro-2H-pyran-2,4(3H)-dione], for which the IC50 came to 2.1 µM.

Consider `CC(=O)Nc1ccc(C#CCCC2(C3CCCC3)CC(=O)CC(=O)O2)cn1` (centres unmarked) [Example 11, N-{5-[4-(2-Cyclopentyl-4,6-dioxo-tetrahydro-pyran-2-yl)-but-1-ynyl]-pyridin-2-yl}-acetamide], for which the IC50 amounted to 67 µM.

As to `CC(C)c1cccc(C#CC2(C3CCCC3)CC(=O)CC(=O)O2)c1` (centres unmarked) [Example 3], the 50% inhibitory concentration (IC50) was 8.5 µM.

Regarding `O=C1CC(=O)OC(CCC#Cc2cccc(O)c2)(C2CCCC2)C1` (centres unmarked) [Example 13, 6-Cyclopentyl-6-[4-(3-hydroxy-phenyl)-but-3-ynyl]-dihydro-pyran-2,4-dione], the IC50 amounted to 4.5 µM.

Consider `O=C1CC(=O)OC(CCC#Cc2ccc3c(c2)OCO3)(C2CCCC2)C1` (centres unmarked) [Example 10, 6-(4-Benzo[1,3]dioxol-5-yl-but-3-ynyl)-6-cyclopentyl-dihydro-pyran-2,4-dione], for which the IC50 was 10.7 µM.

Turning to `O=C1CC(=O)OC(CCC#Cc2ccc3c(c2)OCCO3)(C2CCCC2)C1` (centres unmarked) [Example 9, 6-Cyclopentyl-6-[4-(2,3-dihydro-benzo[1,4]dioxin-6-yl)-but-3-ynyl]-dihydro-pyran-2,4-dione], the IC50 was 11.7 µM.

For the compound `O=C1CC(=O)OC(CCC#Cc2ccccc2)(C2CCCC2)C1` (centres unmarked) [Example 6, 6-cyclopentyl-6-(4-phenyl-but-3-ynyl)-dihydro-pyran-2,4-dione], the IC50 is 8.29 µM.

In the case of `COc1cccc(C#CCCC2(C3CCCC3)CC(=O)CC(=O)O2)c1` (centres unmarked) [Example 7, 6-Cyclopentyl-6-[4-(3-methoxy-phenyl)-but-3-ynyl]-dihydro-pyran-2,4-dione], the IC50 was 12.1 µM.

Take `O=C1CC(=O)OC(CCC#Cc2ccc3ocnc3c2)(C2CCCC2)C1` (centres unmarked) [Example 14, 6-(4-benzooxazol-5-yl-but-3-ynyl)-6-cyclopentyl-dihydro-pyran-2,4-dione]: the IC50 was found to be 5.8 µM.

Turning to `COC(=O)Cc1ccc(C#CCCC2(C3CCCC3)CC(=O)CC(=O)O2)cc1` (centres unmarked) [Example 12, {4-[4-(2-cyclopentyl-4,6-dioxo-tetrahydro-pyran-2-yl)-but-1-ynyl]-phenyl}-acetic acid methyl ester], the IC50 is 10.2 µM.

As for `C#CCCC1(C2CCCC2)CC(=O)CC(=O)O1` (centres unmarked) [Example 5, 6-but-3-ynyl-6-cyclopentyl-dihydro-pyran-2,4-dione], the IC50 was determined as 74 µM.

Regarding `O=C1CC(CCC#Cc2cccc(O)c2)(C2CCCC2)OC(=O)C1Sc1ccccc1` (centres unmarked) [Example 17, 6-Cyclopentyl-6-[4-(3-hydroxy-phenyl)-but-3-ynyl]-3-phenylsulfanyl-dihydro-pyran-2,4-dione], the IC50 came out at 7.6 µM.

As to `COc1ccc(C#CC2(C3CCCC3)CC(=O)CC(=O)O2)cc1` (centres unmarked) [Example 1, 6-cyclopentyl-6-[(4-methoxyphenyl)ethynyl]dihydro-2H-pyran-2,4(3H)-dione], the IC50 turned out to be 12 µM.
